# In patent US12121530B2, “Composition and methods for treating articulating joint disorders with nucleoside reverse transcriptase inhibitors” (RHODE ISLAND HOSPITAL, priority 2018, dated 2024):
# Entries after “also recorded” stand apart in the source; their conditions may differ.
# How the values were obtained:
# 129S6/SvEv mice = assay: DMM induced OA (PTOA) in 129S6/SvEv mice, oral 3TC or FTC; assay type: in vivo, mouse; conditions: for Adamts5 mRNA in cartilage / Col10 (Col 10a1) mRNA in cartilage / Line-1 level in cartilage / Mmp13 mRNA in cartilage / miR-365 induction by DMM: DMM mice, qPCR, versus Saline; for body weights, drug versus control treatment groups: DMM or Sham mice, drug in water from 8 weeks old for 4 weeks; for DMM induced proteoglycan loss in surgical knees: histology, drug in water for 4 weeks; for DMM induced OA / cartilage joint degeneration (Safranin O, OARSI quantification): oral administration for 1 month from 2-month-old
# Text: 12956/SvEv strain male mice were purchased from Taconic (https://www.taconic.com/mouse-model/129s6) at their age of 7-week-old. At least 3-day (72-hrs) acclimation period must be given to mice before any further procedures occurred to them. All 12956/SvEv strain mice throughout the studies were male.
# 129S6/SvEv male mice were chosen for experimental subjects at their age of 8-week-old. To create mouse injury/trauma induced OA model, medial meniscus ligament was transected using a previously described method (Lohmander, L. S., et al. Am J Sports Med 35, 1756-1769 (2007)). Briefly, 8-week-old male mice were anesthetized using either intraperitoneal (IP) injection of Ketamine/Dexmedetomidine or isoflurane to carry out medial parapatellar arthrotomy. Transection was made with a stab knife (Sharpoint™, Cat. 72-1551). At Weeks 12, mice were euthanized and dissected for histological examination as well as cartilage RNA extraction. 12 mice were used for each group/time point.
# Paraffin sections were de-paraffinized in 2 changes of xylene, 10 mins each, followed by re-hydration in 2 changes of 100% alcohol, 5 mins each; 2 changes of 95% alcohol, 5 mins each; 70% alcohol for 5 mins. Sections were then rinsed in running tap water for 2 mins before stained with 0.4% fast green solution (Sigma, Cat. F-7258, St. Louis, Mo. 63103 USA) for 2 mins however the latter timing must be empirically controlled to assure desired coloration. Stained sections were then quickly rinsed with 1% acetic acid solution (Sigma, Cat. 695092-500ML-GL, St. Louis, Mo. 63103 USA) for no more than 10-15 sec. 0.1% Safranin O Solution was used for staining proteoglycan however the actual timing must be carefully determined based on actual coloring condition, for maximally 10 mins. After Safranin O staining, sections were submerged in 2 changes of 95% alcohol, 2 mins each, 2 changes of 100% alcohol, 2 mins each for de-hydration. Lastly, sections were cleared in 2 changes of xylene, 2 mins each, and mounted using resinous mounting medium (ACRYMOUNT™, Cat. SL80-4, McKinney, Tex. 75069 USA).
# To histologically evaluate OA severity, we quantified Safranin O stained knee sections according to OARSI semi-quantitative system as previously described^3.
# Both miRNA and mRNA were extracted using miRNeasy Mini Kit (Qiagen®, Germantown, Md., USA) and reversely transcribed using miScriptIIRT Kit (Qiagen®, Germantown, Md., USA) according to manufacturer's instruction. qPCR was performed using SYBR Green PCR master mix (Qiagen®, Germantown, Md., USA) on a Bio-Rad CFX96 real-time PCR detection system (Bio-Rad®, Hercules, Calif., USA). Amplification conditions are as follows: 95° C. for 10 min, 40 cycles of 95° C. for 10″, 55° C. for 30″, and 72° C. for 30″. 18S ribosomal or GAPDH RNA was used as an internal control gene to normalize the mRNAs level. The ubiquitously expressed snRNA U6 was used as an endogenous control for miRNAs level. Primers were synthesized by Integrated DNA Technologies (http://www.idtdna.com). The primers for miR-365 were purchased from Qiagen. Fold changes of mRNA and miRNAs were calculated by the 2^^(ΔΔCt) method and normalized to 18S/GAPDH or U6 snRNA, respectively.
# HIV patients = assay: summary data of NRTI on OA in HIV patients; assay type: in vivo, human; conditions: HIV patients, older than 50, dosage dependent, both male and female
# Text: Medical provider diagnoses of ICD-9-CM 715 [osteoarthrosis and allied disorders] include the following definitions: 1) strict=ICD-9-CM 715; 2) expanded=ICD-9-CM 715, 716 [other and unspecified arthropathies], OR 719 [other and unspecified disorders of joint]); and 3) probable=strict OR expanded+respondent-reported prior diagnosis of OA or other arthritis excluding rheumatoid arthritis (RA).
# [1] = system: mouse femur articular cartilage; assay: femur explant organ culture with 3TC or FTC, RT-qPCR of articular cartilage; assay type: cell-based; conditions: 10 μM 3TC or 25 μM FTC, 48 hrs
# Text: Femurs were obtained from 21-day-old WT C57BL/6 mice. Femurs with intact articular surface and periosteum was sterilely dissected under microscope. Upon harvesting, femurs were rinsed with HBSS (Gibco®, Grand Island, N.Y. 14072 USA) and then submerged into DMEM (Gibco, Grand Island, N.Y. 14072 USA) medium supplemented with 10% fetal bovine serum (FBS, Gibco®, Grand Island, N.Y. 14072 USA) in 12-well culture dishes. The first-generation cytidine analogue/NRTI-3TC or newest-generation cytidine analogue/NRTI-FTC was added into the medium with desired concentrations. After a total of 48 hrs incubation at 37° C. in an atmosphere of 5% CO2, femurs were rinsed with HBSS and articular cartilage was peeled off using surgical scalpels under dissecting microscope for RNA extraction. Both miRNA and mRNA were extracted using miRNeasy Mini Kit (Qiagen®, Germantown, Md., USA) and reversely transcribed using […] (Qiagen®, Germantown, Md., USA) according to manufacturer's instruction. qPCR was performed using SYBR Green PCR master mix (Qiagen®, Germantown, Md., USA) on a Bio-Rad CFX96 real-time PCR detection system (Bio-Rad®, Hercules, Calif., USA). Amplification conditions are as follows: 95° C. for 10 min, 40 cycles of 95° C. for 10'', 55° C. for 30'', and 72° C. for 30''. 18S ribosomal or GAPDH RNA was used as an internal control gene to normalize the mRNAs level. The ubiquitously expressed snRNA U6 was used as an endogenous control for miRNAs level. […] The primers for miR-365 were purchased from Qiagen. Fold changes of mRNA and miRNAs were calculated by the 2^^(ΔΔCt) method and normalized to 18S/GAPDH or U6 snRNA, respectively.
smiles,measurement,setting,value
"Nc1ccn([C@@H]2CS[C@H](CO)O2)c(=O)n1 [3TC, lamivudine]",Adamts5 mRNA in cartilage,129S6/SvEv mice,significantly repressed
same,Col10 (Col 10a1) mRNA in cartilage,129S6/SvEv mice,significantly repressed
same,Line-1 level in cartilage,129S6/SvEv mice,inhibition
same,Mmp13 mRNA in cartilage,129S6/SvEv mice,significantly repressed
same,miR-365 induction by DMM,129S6/SvEv mice,significantly prohibit
same,"body weights, drug versus control treatment groups",129S6/SvEv mice,No appreciable difference
same,DMM induced proteoglycan loss in surgical knees,129S6/SvEv mice,effectively prevent
same,"DMM induced OA / cartilage joint degeneration (Safranin O, OARSI quantification)",129S6/SvEv mice,significantly prevented; also recorded: significantly inhibited
same,strict OA (ICD-9-CM 715),HIV patients,inhibiting
same,Acan expression,[1],induces; also recorded: increased
same,Adamts5 expression,[1],inhibiting; also recorded: significantly inhibited
same,Col2 (Col2a1) expression,[1],induces; also recorded: increased
same,Col10 (Col10a1) expression,[1],inhibiting; also recorded: significantly inhibited
same,Ifn-α mRNA level,[1],significantly inhibited
same,Ihh mRNA level,[1],significantly inhibited
same,Line-1 (L1) levels,[1],inhibiting; also recorded: significantly inhibited
same,Mmp3 mRNA level,[1],significantly inhibited
same,Mmp13 expression,[1],inhibiting; also recorded: significantly inhibited
"Nc1nc(=O)n([C@@H]2CS[C@H](CO)O2)cc1F [FTC, 2′,3′-dideoxy-5-fluoro-3′-thiacytidine]",Adamts5 mRNA in cartilage,129S6/SvEv mice,significantly repressed
same,Col10 (Col 10a1) mRNA in cartilage,129S6/SvEv mice,significantly repressed
same,Line-1 level in cartilage,129S6/SvEv mice,inhibition
same,Mmp13 mRNA in cartilage,129S6/SvEv mice,significantly repressed
same,miR-365 induction by DMM,129S6/SvEv mice,significantly prohibit
same,"body weights, drug versus control treatment groups",129S6/SvEv mice,No appreciable difference
same,DMM induced proteoglycan loss in surgical knees,129S6/SvEv mice,effectively prevent
same,"DMM induced OA / cartilage joint degeneration (Safranin O, OARSI quantification)",129S6/SvEv mice,significantly prevented; also recorded: significantly inhibited
same,strict OA (ICD-9-CM 715),HIV patients,inhibiting
same,Acan expression,[1],induces; also recorded: increased
same,Adamts5 expression,[1],inhibits; also recorded: significantly inhibited
same,Col2 (Col2a1) expression,[1],increased
same,Col10 (Col10a1) expression,[1],significantly inhibited
same,Ifn-α mRNA level,[1],significantly inhibited
same,Ihh mRNA level,[1],significantly inhibited
same,Line-1 (L1) levels,[1],significantly inhibited
same,Mmp3 mRNA level,[1],significantly inhibited
same,Mmp13 expression,[1],inhibits; also recorded: significantly inhibited
